Legend:
[1] = tested on: Streptococcus sp. Group D; test: MIC aerobic bacteria, standard agar-dilution assay; type: cell-based
Solubility in solvents = type: physicochemical; conditions: qualitative
Source text: As many as seven antibiotic factors are recovered from the fermentation and are obtained as a mixture, the A41030 complex. It will be recognized that the ratio of the factors in the A41030 complex will vary, depending upon the fermentation conditions used. The individual factors A, B, C, D, E, F, and G are separated and isolated as individual compounds, as hereinafter described.

Clostridium septicum = test: MIC anaerobic bacteria, agar-dilution; type: cell-based; conditions: Clostridium septicum 1128
[2] = tested on: Peptostreptococcus anaerobius; test: MIC anaerobic bacteria, agar-dilution; type: cell-based; conditions: Peptostreptococcus anaerobius 1428
Eubacterium aerofaciens = test: MIC anaerobic bacteria, agar-dilution; type: cell-based; conditions: Eubacterium aerofaciens 1235
Escherichia coli = test: MIC aerobic bacteria, standard agar-dilution assay; type: cell-based; conditions: Escherichia coli TEM, 24 hours
Clostridium difficile [3] = test: MIC anaerobic bacteria, agar-dilution; type: cell-based; conditions: Clostridium difficile 2994; agar-dilution (Table 9)
Haemophilus influenzae = test: MIC aerobic bacteria, standard agar-dilution assay; type: cell-based
Peptococcus prevoti = test: MIC anaerobic bacteria, agar-dilution; type: cell-based; conditions: Peptococcus prevoti 1281
[4] = tested on: Bacteroides melaninogenicus; test: MIC anaerobic bacteria, agar-dilution; type: cell-based
[5] = tested on: Peptostreptococcus intermedius; test: MIC anaerobic bacteria, agar-dilution; type: cell-based; conditions: Peptostreptococcus intermedius 1264
Streptococcus pneumoniae = test: MIC aerobic bacteria, standard agar-dilution assay; type: cell-based; conditions: Streptococcus pneumoniae Park I, 24 hours
Bacteroides corrodens = test: MIC anaerobic bacteria, agar-dilution; type: cell-based; conditions: Bacteroides corrodens 1874
Streptococcus pyogenes = test: MIC aerobic bacteria, standard agar-dilution assay; type: cell-based; conditions: Streptococcus pyogenes C203, 24 hours
Fusobacterium symbiosum = test: MIC anaerobic bacteria, agar-dilution; type: cell-based; conditions: Fusobacterium symbiosum 1470
Staphylococcus aureus = test: MIC aerobic bacteria, standard agar-dilution assay; type: cell-based; conditions: Staphylococcus aureus S13E; agar-dilution, 24 hours
Clostridium difficile [6] = test: MIC against Clostridium difficile strains, agar-dilution; type: cell-based
Source text: The A41030 antibiotic factors A, B, C, D, E, F, and G, are also active against a number of strains of Clostridium difficile, as determined by the agardilution method.

[7] = tested on: Staphylococcus epidermidis; test: MIC aerobic bacteria, standard agar-dilution assay; type: cell-based
Propionibacterium acnes = test: MIC anaerobic bacteria, agar-dilution; type: cell-based; conditions: Propionibacterium acnes 79; agar-dilution (Table 9)
Clostridium perfringens = type: cell-based; conditions: Clostridium perfringens 81; agar-dilution
Bacteroides vulgatis = test: MIC anaerobic bacteria, agar-dilution; type: cell-based; conditions: Bacteroides vulgatis 1211
[8] = tested on: Bacteroides thetaiotaomicron; test: MIC anaerobic bacteria, agar-dilution; type: cell-based; conditions: Bacteroides thetaiotaomicron 1438
Bacteroides fragilis = test: MIC anaerobic bacteria, agar-dilution; type: cell-based
[9] = Electrometric titration (pKa); type: physicochemical; conditions: electrometric titration in 66% dimethylformamide in water; stated as possible
Source text: Antibiotic A41030 factor A is a white, crystalline solid.

[10] = tested on: Fusobacterium necrophorum; test: MIC anaerobic bacteria, agar-dilution; type: cell-based; conditions: Fusobacterium necrophorum 6054A
[11] = tested on: Peptococcus asaccharolyticus; test: MIC anaerobic bacteria, agar-dilution; type: cell-based; conditions: Peptococcus asaccharolyticus 1302
[12] = Streptococcus sp. Group D 9960, 24 hours
[13] = Streptococcus sp. Group D X66, 24 hours
[14] = Haemophilus influenzae 76, 24 hours
[15] = Haemophilus influenzae C.L., 24 hours
[16] = Bacteroides melaninogenicus 2736
[17] = Staphylococcus epidermidis EPI1, 24 hours

Q: Which MIC [1, 12] does the source give for A41030 factor D here?
A: Its MIC is 1 µg/mL.

Q: And the MIC [1, 13]?
A: Its MIC is 1 µg/mL.

Q: What about the “solubility (solvents)” value (Solubility in solvents) of the same substance?
A: The value was “soluble in the same solvents as factor A”.

Q: What about the MIC (Clostridium septicum) of the same substance?
A: Its MIC is 0.25 µg/mL.

Q: And the MIC [2]?
A: Its MIC is 0.5 µg/mL.

Q: What about the MIC (Eubacterium aerofaciens) of the same substance?
A: Its MIC is 0.5 µg/mL.

Q: What about the MIC (Escherichia coli) of the same substance?
A: Its MIC is 64 µg/mL.

Q: What about the MIC (Clostridium difficile [3]) of the same substance?
A: Its MIC is 0.5 µg/mL.

Q: What about the MIC (Haemophilus influenzae; [14]) of the same substance?
A: Its MIC is 8 µg/mL.

Q: What about the MIC (Haemophilus influenzae; [15]) of the same substance?
A: Its MIC is 8 µg/mL.

Q: What about the MIC (Peptococcus prevoti) of the same substance?
A: The MIC was 0.25 µg/mL.

Q: And the MIC ([4]; Bacteroides melaninogenicus 1856/28)?
A: The MIC was over 64 µg/mL.

Q: What about the MIC [4, 16] of the same substance?
A: The MIC was 0.5 µg/mL.

Q: And the MIC [5]?
A: The MIC was 1.0 µg/mL.

Q: And the MIC (Streptococcus pneumoniae)?
A: The MIC was 0.5 µg/mL.

Q: And the MIC (Bacteroides corrodens)?
A: The MIC was 32 µg/mL.

Q: And the MIC (Streptococcus pyogenes)?
A: Its MIC is 0.5 µg/mL.

Q: And the MIC (Fusobacterium symbiosum)?
A: The MIC was 0.5 µg/mL.

Q: And the MIC (Staphylococcus aureus)?
A: The MIC was 0.25 µg/mL.

Q: And the MIC (Clostridium difficile [6]; Clostridium difficile 78)?
A: Its MIC is at most 0.25 µg/mL.

Q: And the MIC (Clostridium difficile [6]; Clostridium difficile 107B)?
A: Its MIC is at most 0.25 µg/mL.

Q: What about the MIC (Clostridium difficile [6]; Clostridium difficile 111F) of the same substance?
A: Its MIC is at most 0.25 µg/mL.

Q: And the MIC (Clostridium difficile [6]; Clostridium difficile 1153)?
A: The MIC was 1.0 µg/mL.

Q: What about the MIC (Clostridium difficile [6]; Clostridium difficile 2634) of the same substance?
A: The MIC was 0.5 µg/mL.

Q: And the MIC (Clostridium difficile [6]; Clostridium difficile 3424-5B)?
A: The MIC was 0.5 µg/mL.

Q: And the MIC (Clostridium difficile [6]; Clostridium difficile 3816)?
A: Its MIC is 0.5 µg/mL.

Q: And the MIC (Clostridium difficile [6]; Clostridium difficile 3950D)?
A: Its MIC is 0.5 µg/mL.

Q: And the MIC (Clostridium difficile [6]; Clostridium difficile 6890)?
A: Its MIC is 0.5 µg/mL.

Q: And the MIC (Clostridium difficile [6]; Clostridium difficile 8484)?
A: The MIC was at most 0.25 µg/mL.

Q: What about the MIC (Clostridium difficile [6]; Clostridium difficile A-194) of the same substance?
A: Its MIC is at most 0.25 µg/mL.

Q: And the MIC (Clostridium difficile [6]; Clostridium difficile A-195)?
A: Its MIC is at most 0.25 µg/mL.

Q: And the MIC (Clostridium difficile [6]; Clostridium difficile A-196)?
A: Its MIC is 0.5 µg/mL.

Q: And the MIC (Clostridium difficile [6]; Clostridium difficile A-279)?
A: The MIC was at most 0.25 µg/mL.

Q: And the MIC (Clostridium difficile [6]; Clostridium difficile A-280)?
A: The MIC was at most 0.25 µg/mL.

Q: What about the MIC (Clostridium difficile [6]; Clostridium difficile A-281) of the same substance?
A: The MIC was 0.5 µg/mL.

Q: And the MIC (Clostridium difficile [6]; Clostridium difficile WAL-2112)?
A: The MIC was at most 0.25 µg/mL.

Q: What about the MIC (Clostridium difficile [6]; Clostridium difficile WAL-3657) of the same substance?
A: The MIC was at most 0.25 µg/mL.

Q: What about the MIC (Clostridium difficile [6]; Clostridium difficile WAL-4268) of the same substance?
A: The MIC was at most 0.25 µg/mL.

Q: And the MIC [7, 17]?
A: The MIC was 0.25 µg/mL.

Q: What about the MIC ([7]; Staphylococcus epidermidis EPI2, 24 hours) of the same substance?
A: The MIC was 1 µg/mL.

Q: What about the MIC (Propionibacterium acnes) of the same substance?
A: Its MIC is 0.25 µg/mL.

Q: What about the MIC (Clostridium perfringens) of the same substance?
A: Its MIC is 0.5 µg/mL.

Q: And the MIC (Bacteroides vulgatis)?
A: The MIC was 32 µg/mL.

Q: What about the MIC [8] of the same substance?
A: The MIC was 32 µg/mL.

Q: And the MIC (Bacteroides fragilis; Bacteroides fragilis 111)?
A: Its MIC is 32 µg/mL.

Q: What about the MIC (Bacteroides fragilis; Bacteroides fragilis 1877) of the same substance?
A: The MIC was 32 µg/mL.

Q: What about the MIC (Bacteroides fragilis; Bacteroides fragilis 1936B) of the same substance?
A: Its MIC is 32 µg/mL.

Q: And the “possibly additional pKa's” value [9]?
A: Its value is over 10.

Q: For A41030 factor E, which MIC [1, 12] is on record?
A: The MIC was 1 µg/mL.

Q: And the MIC [1, 13]?
A: The MIC was 1 µg/mL.

Q: And the “solubility (solvents)” value (Solubility in solvents)?
A: The value was “soluble in the same solvents as factor A”.

Q: And the MIC (Clostridium septicum)?
A: Its MIC is 0.5 µg/mL.

Q: What about the MIC [2] of the same substance?
A: The MIC was 32 µg/mL.

Q: And the MIC (Eubacterium aerofaciens)?
A: Its MIC is 0.5 µg/mL.

Q: And the MIC (Clostridium difficile [3])?
A: Its MIC is 0.5 µg/mL.

Q: And the MIC (Haemophilus influenzae; [14])?
A: Its MIC is 8 µg/mL.

Q: And the MIC (Haemophilus influenzae; [15])?
A: Its MIC is 8 µg/mL.

Q: What about the MIC (Peptococcus prevoti) of the same substance?
A: The MIC was 32 µg/mL.

Q: And the MIC [4, 16]?
A: Its MIC is 32 µg/mL.

Q: And the MIC [5]?
A: The MIC was 32 µg/mL.

Q: What about the MIC (Streptococcus pneumoniae) of the same substance?
A: Its MIC is 0.25 µg/mL.

Q: What about the MIC (Bacteroides corrodens) of the same substance?
A: The MIC was 64 µg/mL.

Q: And the MIC (Streptococcus pyogenes)?
A: Its MIC is 0.25 µg/mL.

Q: What about the MIC [10] of the same substance?
A: Its MIC is 0.5 µg/mL.

Q: And the MIC (Fusobacterium symbiosum)?
A: Its MIC is 1.0 µg/mL.

Q: And the MIC (Staphylococcus aureus)?
A: The MIC was 0.25 µg/mL.

Q: What about the MIC (Clostridium difficile [6]; Clostridium difficile 78) of the same substance?
A: Its MIC is 0.5 µg/mL.

Q: And the MIC (Clostridium difficile [6]; Clostridium difficile 107B)?
A: Its MIC is 0.5 µg/mL.

Q: And the MIC (Clostridium difficile [6]; Clostridium difficile 111F)?
A: Its MIC is 0.5 µg/mL.

Q: And the MIC (Clostridium difficile [6]; Clostridium difficile 1153)?
A: Its MIC is 1.0 µg/mL.

Q: What about the MIC (Clostridium difficile [6]; Clostridium difficile 2634) of the same substance?
A: Its MIC is 1.0 µg/mL.

Q: And the MIC (Clostridium difficile [6]; Clostridium difficile 3424-5B)?
A: Its MIC is 0.5 µg/mL.

Q: And the MIC (Clostridium difficile [6]; Clostridium difficile 3816)?
A: Its MIC is 0.5 µg/mL.

Q: What about the MIC (Clostridium difficile [6]; Clostridium difficile 3950D) of the same substance?
A: The MIC was 0.5 µg/mL.

Q: And the MIC (Clostridium difficile [6]; Clostridium difficile 6890)?
A: Its MIC is 0.5 µg/mL.

Q: What about the MIC (Clostridium difficile [6]; Clostridium difficile 8484) of the same substance?
A: The MIC was 0.5 µg/mL.

Q: What about the MIC (Clostridium difficile [6]; Clostridium difficile A-194) of the same substance?
A: Its MIC is 0.5 µg/mL.

Q: What about the MIC (Clostridium difficile [6]; Clostridium difficile A-195) of the same substance?
A: The MIC was 0.5 µg/mL.

Q: And the MIC (Clostridium difficile [6]; Clostridium difficile A-196)?
A: The MIC was 1.0 µg/mL.

Q: What about the MIC (Clostridium difficile [6]; Clostridium difficile A-279) of the same substance?
A: The MIC was 0.5 µg/mL.

Q: What about the MIC (Clostridium difficile [6]; Clostridium difficile A-280) of the same substance?
A: The MIC was 0.5 µg/mL.

Q: And the MIC (Clostridium difficile [6]; Clostridium difficile A-281)?
A: The MIC was 1.0 µg/mL.

Q: And the MIC (Clostridium difficile [6]; Clostridium difficile WAL-2112)?
A: Its MIC is 0.5 µg/mL.

Q: And the MIC (Clostridium difficile [6]; Clostridium difficile WAL-3657)?
A: Its MIC is 0.5 µg/mL.

Q: And the MIC (Clostridium difficile [6]; Clostridium difficile WAL-4268)?
A: Its MIC is 0.5 µg/mL.

Q: And the MIC [7, 17]?
A: The MIC was 0.25 µg/mL.

Q: And the MIC [11]?
A: The MIC was at most 0.25 µg/mL.

Q: What about the MIC (Propionibacterium acnes) of the same substance?
A: Its MIC is 0.5 µg/mL.

Q: What about the MIC (Clostridium perfringens) of the same substance?
A: Its MIC is 1.0 µg/mL.

Q: What about the MIC (Bacteroides vulgatis) of the same substance?
A: The MIC was 32 µg/mL.

Q: What about the MIC [8] of the same substance?
A: The MIC was 64 µg/mL.

Q: And the MIC (Bacteroides fragilis; Bacteroides fragilis 111)?
A: The MIC was 64 µg/mL.

Q: And the MIC (Bacteroides fragilis; Bacteroides fragilis 1877)?
A: Its MIC is 32 µg/mL.

Q: And the MIC (Bacteroides fragilis; Bacteroides fragilis 1936B)?
A: The MIC was 64 µg/mL.

Q: What about the “possibly additional pKa's” value [9] of the same substance?
A: The value was over 10.

Reference: US4695545A, “Culture and process for producing A41030 antibiotics” (Eli Lilly and Company, priority 1984, dated 1987)
